The values that follow come from article PMC13195669, “GPR3 Ligands Discovered through Combined Virtual and Conformational Biosensor-Based Screening” (Journal of the American Chemical Society, 2026).

One assay deals with T1, GPR3 (Homo sapiens, UniProt P46089).
T1 construct: host or cells: HEK293A, transient
The assay is described as follows: Gs heterotrimer dissociation biosensor (Gs-CASE) in HEK293A cells cotransfected with GPR3. The format is cell-based. The following applies: HEK293A transiently transfected with Gs-CASE and GPR3; read-out: EC50 of GPR3-dependent BRET increase, Gs dissociation biosensor. From the text:
To further delineate the pharmacological properties of 33, we evaluated its activity in signaling assays downstream of GPR3. […] We also investigated whether 33 blocks the activity of previously validated GPR3 ligands–the agonist DPI and the inverse agonist AF64394 (Chart )–in a cAMP assay. […] The differential effect between OEA and oleamide may reflect differences in their conformational and/or positional flexibility within the GPR3 binding pocket. This difference is supported by MD simulations of oleamide in GPR3 and by a comparison of oleic acid binding poses in the highly similar pockets of GPR3 and GPR6. , […]
(§1) Cells expressing the conformational GPCR biosensors were grown for 24 h (stable cells) or 48 h (transiently transfected cells) in white 96-well plates and washed with 100 µl of HBSS. […] Three baseline BRET reads were recorded and averaged prior to the addition of serial dilutions of ligands or veh icle control and subsequent BRET reads. […] BRE T donor emission was quantified with a 470/80 nm monochromator. […] Experiments were carried out using a CLARIOstar plate reader.
(§2) FRET- and BRET-based measurements of cAMP levels and Gs dissociation/reassociation Transfected cells grown in black 96-well plates were washed twice with 100 µl of HBSS 48 h after transfection and incubated with HBSS. […] FRET donor emission was quantified with a 480/10 nm filter. […]
Background: In BRET a luciferase serves as donor, and the signal depends on an acceptor being close.

The next assay concerns the target T2, GPR3 T3.37A mutant (Homo sapiens, UniProt P46089, T121A).
T2 construct: ligated to the full-length C-terminus; expressed in transfected cells; host or cells: HEK293A, transient
Put plainly: GPR3 conformational biosensor with T3.37A point mutation. It counts as cell-based. The settings on record: wildtype vs mutant biosensor; transiently transfected HEK293A.
From the text: To develop a hypothesis for the cause of the significant loss in efficacy from VH1 to 33, we computationally predicted the binding poses of both molecules in GPR3 (Figure a). […] In contrast, the cyclopropyl ring of 33 is still buried in the receptor’s transmembrane core. […] We also challenged this binding model of 33 with another GPR3 biosensor variant which harbors the T^3.37A point mutation in transmembrane helix 3. According to an alternative predicted pose of 33 obtained with Boltz-2 (c.f., SI – Materials and Methods section), this mutation should hamper 33 binding to GPR3.
BRET-based GPCR conformational sensor experiments
as §1, §2

T1 sequence (P46089 whole entry): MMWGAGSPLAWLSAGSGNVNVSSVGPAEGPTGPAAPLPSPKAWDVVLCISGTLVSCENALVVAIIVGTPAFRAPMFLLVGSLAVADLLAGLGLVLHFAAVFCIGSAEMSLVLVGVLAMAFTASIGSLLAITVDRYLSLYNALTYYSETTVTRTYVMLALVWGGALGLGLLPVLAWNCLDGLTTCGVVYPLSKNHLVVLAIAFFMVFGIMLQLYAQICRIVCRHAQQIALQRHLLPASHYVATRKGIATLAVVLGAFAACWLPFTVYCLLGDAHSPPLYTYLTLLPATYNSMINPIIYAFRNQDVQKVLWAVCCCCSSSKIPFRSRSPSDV
T2 sequence (P46089 2-330 T121A limits assumed): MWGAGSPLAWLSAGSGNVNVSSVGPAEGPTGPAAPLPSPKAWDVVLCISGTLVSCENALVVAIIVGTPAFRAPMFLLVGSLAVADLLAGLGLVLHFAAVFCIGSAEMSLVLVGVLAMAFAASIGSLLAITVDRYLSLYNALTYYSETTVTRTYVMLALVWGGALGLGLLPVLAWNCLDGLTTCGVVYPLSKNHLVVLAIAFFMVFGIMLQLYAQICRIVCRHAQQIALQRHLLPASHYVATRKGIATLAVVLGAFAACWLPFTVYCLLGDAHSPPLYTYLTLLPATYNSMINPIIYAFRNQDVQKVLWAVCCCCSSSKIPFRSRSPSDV

In general, EC50 refers to the concentration giving half of the maximal effect. As for `N=c1n(Cc2ccccc2)c2ccccc2n1CC1CC1` [compound 33], on GPR3, the EC50 came out at 249 nM. The “effect of T3.37A mutation on activity” value on GPR3 T3.37A mutant was “no such effect on 33 activity”.
